In publication PMC12250302, “Synthesis, Antimicrobial Activities, and Model of Action of Novel Tetralone Derivatives Containing Aminoguanidinium Moiety” (International Journal of Molecular Sciences, 2025):
Values after ≈ are worked out from the molar mass of the structure shown. Where two headings read alike, the source gives them in different places.

Columns and labels:
Experiment in all cases: MIC and MBC testing, broth microdilution
P. aeruginosa ATCC 27853 = format: cell-based, Pseudomonas aeruginosa
From the text: (§1) The minimum inhibitory concentrations (MICs) and minimum bactericidal concentrations (MBCs) of the synthesized compounds effective against ESKAPE strains, S. aureus clinical isolates, and MRSA were investigated by the broth dilution method. Levofloxacin is a broad-spectrum antibacterial agent that is widely used in the treatment of ESKAPE infections. Therefore, levofloxacin was selected as the positive control for the preliminary activity screening. DMSO (0.1%) was selected as the negative control.
(§2) The minimum inhibitory concentration (MIC) of all synthesized compounds was tested by the broth microdilution method. In brief, compounds dissolved in DMSO were diluted twice continuously in a 96-well plate with MH broth. The ESKAPE pathogens (E. coli ATCC 25922, S. aureus ATCC 29213, K. pneumoniae ATCC 700603, A. baumannii ATCC 19606, P. aeruginosa ATCC 27853, and E. faecium ATCC 35667), clinical S. aureus isolates (LMY45, LMY46, LMY47, and LMY48) and methicillin-resistant Staphylococcus aureus (MRSA-1 and MRSA-2) were cultured in MH broth to logarithmic growth phase and then diluted to 1 × 10^6 CFU/mL in MH broth. Subsequently, the diluted bacterial solution was mixed with the diluted compound solution in a 96-well plate and incubated at 37 °C for a duration of 18 h. The MIC of the compounds was recorded as the lowest concentration at which no visible growth was observed. […] Each concentration was replicated thrice.

E. coli ATCC 25922 = format: cell-based, Escherichia coli
From the text: as §1, §2

E. faecium ATCC 35667 = format: cell-based, Enterococcus faecium; settings: E. faecium ATCC 35667; for MIC: 18 h
From the text: as §1, §2

S. aureus ATCC 29213 = format: cell-based, Staphylococcus aureus; settings: S. aureus ATCC 29213; for MIC: 18 h
From the text: as §1, §2

A. baumannii ATCC 19606 = format: cell-based, Acinetobacter baumannii
From the text: as §1, §2

[1] = test system: clinical S. aureus isolate LMY45; format: cell-based, Staphylococcus aureus; settings: LMY45; for MIC: 18 h
Experimental: (§3) Furthermore, the MBC values of the compounds were detected.
as §2, with “h.” for “h. The MIC of the compounds was recorded as the lowest concentration at which no visible growth was observed.”

[2] = test system: clinical S. aureus isolate LMY46; format: cell-based, Staphylococcus aureus; settings: LMY46; for MIC: 18 h
Experimental: as §3
as §2, with “h.” for “h. The MIC of the compounds was recorded as the lowest concentration at which no visible growth was observed.”

[3] = test system: clinical S. aureus isolate LMY48; format: cell-based, Staphylococcus aureus; settings: LMY48; for MIC: 18 h
Experimental: as §3
as §2, with “h.” for “h. The MIC of the compounds was recorded as the lowest concentration at which no visible growth was observed.”

MRSA-2 = format: cell-based, Staphylococcus aureus; settings: MRSA-2; for MIC: 18 h
Experimental: as §3
as §2, with “h.” for “h. The MIC of the compounds was recorded as the lowest concentration at which no visible growth was observed.”

[4] = test system: clinical S. aureus isolate LMY47; format: cell-based, Staphylococcus aureus; settings: LMY47; for MIC: 18 h
Experimental: as §3
as §2, with “h.” for “h. The MIC of the compounds was recorded as the lowest concentration at which no visible growth was observed.”

MRSA-1 = format: cell-based, Staphylococcus aureus; settings: MRSA-1; for MIC: 18 h
Experimental: as §3
as §2, with “h.” for “h. The MIC of the compounds was recorded as the lowest concentration at which no visible growth was observed.”

[5] = test system: K. pneumoniae ATCC 700603; format: cell-based, Klebsiella pneumoniae
From the text: as §1, §2

[6] = Pseudomonas aeruginosa, ATCC27853, 18 h, read-out: MIC
[7] = Pseudomonas aeruginosa, ATCC27853, read-out: MBC
[8] = Escherichia coli, ATCC25922, 18 h, read-out: MIC
[9] = Escherichia coli, ATCC25922, read-out: MBC
[10] = Enterococcus faecium, ATCC35667, read-out: MIC
[11] = Enterococcus faecium, ATCC35667, read-out: MBC
[12] = Staphylococcus aureus, ATCC29213, read-out: MIC
[13] = Staphylococcus aureus, ATCC29213, read-out: MBC
[14] = Acinetobacter baumannii, ATCC19606, 18 h, read-out: MIC
[15] = Acinetobacter baumannii, ATCC19606, read-out: MBC
[16] = Staphylococcus aureus, read-out: MIC
[17] = Staphylococcus aureus, read-out: MBC
[18] = Klebsiella pneumoniae, ATCC700603, 18 h, read-out: MIC
[19] = Klebsiella pneumoniae, ATCC700603, read-out: MBC

## (E)-2-(6-((4-chlorobenzyl)oxy)-3,4-dihydro-1(2H)-naphthalenylidene)hydrazine-1-carboxamide [Compound 1N]
P. aeruginosa ATCC 27853
  MBC: 32 µg/mL
P. aeruginosa ATCC 27853; 18 h
  MIC: 16 µg/mL
E. coli ATCC 25922
  MBC: 8 µg/mL
E. coli ATCC 25922; 18 h
  MIC: 4 µg/mL
E. faecium ATCC 35667
  MBC: 8 µg/mL
  MIC: 2 µg/mL
S. aureus ATCC 29213
  MBC: 4 µg/mL
  MIC: 2 µg/mL
A. baumannii ATCC 19606
  MBC: 16 µg/mL
A. baumannii ATCC 19606; 18 h
  MIC: 4 µg/mL
[1]
  MBC: 4 µg/mL
  MIC: 2 µg/mL
[2]
  MBC: 8 µg/mL
  MIC: 4 µg/mL
[3]
  MBC: 16 µg/mL
  MIC: 2 µg/mL
MRSA-2
  MBC: 4 µg/mL
  MIC: 2 µg/mL
[4]
  MBC: 2 µg/mL
  MIC: 2 µg/mL
MRSA-1
  MBC: 4 µg/mL
  MIC: 2 µg/mL
[5]
  MBC: 32 µg/mL
[5]; 18 h
  MIC: 16 µg/mL

## [H]/N=C(\N)NN=C1CCCc2cc(OCc3ccc(F)cc3F)ccc21 [Compound 1D, (E)-2-(6-((2,4-difluorobenzyl)oxy)-3,4-dihydronaphthalen-1(2H)-ylidene)hydrazine-1-carboximidamide]
P. aeruginosa ATCC 27853; [6]
  MIC: 32 µg/mL (≈ 92.9 µM)
P. aeruginosa ATCC 27853; [7]
  MBC: 32 µg/mL (≈ 92.9 µM)
E. coli ATCC 25922; [8]
  MIC: 8 µg/mL (≈ 23.2 µM)
E. coli ATCC 25922; [9]
  MBC: 8 µg/mL (≈ 23.2 µM)
E. faecium ATCC 35667; [10]
  MIC: 4 µg/mL (≈ 11.6 µM)
E. faecium ATCC 35667; [11]
  MBC: 16 µg/mL (≈ 46.5 µM)
S. aureus ATCC 29213; [12]
  MIC: 2 µg/mL (≈ 5.81 µM)
S. aureus ATCC 29213; [13]
  MBC: 8 µg/mL (≈ 23.2 µM)
A. baumannii ATCC 19606; [14]
  MIC: 8 µg/mL (≈ 23.2 µM)
A. baumannii ATCC 19606; [15]
  MBC: 8 µg/mL (≈ 23.2 µM)
[1]; [16]
  MIC: 2 µg/mL (≈ 5.81 µM)
[1]; [17]
  MBC: 4 µg/mL (≈ 11.6 µM)
[2]; [16]
  MIC: 4 µg/mL (≈ 11.6 µM)
[2]; [17]
  MBC: 32 µg/mL (≈ 92.9 µM)
[3]; [16]
  MIC: 2 µg/mL (≈ 5.81 µM)
[3]; [17]
  MBC: 4 µg/mL (≈ 11.6 µM)
MRSA-2; [16]
  MIC: 2 µg/mL (≈ 5.81 µM)
MRSA-2; [17]
  MBC: 32 µg/mL (≈ 92.9 µM)
[4]; [16]
  MIC: 2 µg/mL (≈ 5.81 µM)
[4]; [17]
  MBC: 8 µg/mL (≈ 23.2 µM)
MRSA-1; [16]
  MIC: 2 µg/mL (≈ 5.81 µM)
MRSA-1; [17]
  MBC: 32 µg/mL (≈ 92.9 µM)
[5]; [18]
  MIC: 16 µg/mL (≈ 46.5 µM)
[5]; [19]
  MBC: 16 µg/mL (≈ 46.5 µM)

## (E)-2-(6-((2,4-dichlorobenzyl)oxy)-3,4-dihydro-1(2H)-naphthalenylidene)hydrazine-1-carboxamide [Compound 1O]
P. aeruginosa ATCC 27853; 18 h
  MIC: >32/- µg/mL
E. coli ATCC 25922
  MBC: 16 µg/mL
E. coli ATCC 25922; 18 h
  MIC: 8 µg/mL
E. faecium ATCC 35667
  MBC: 16 µg/mL
  MIC: 2 µg/mL
S. aureus ATCC 29213
  MBC: 8 µg/mL
  MIC: 4 µg/mL
A. baumannii ATCC 19606
  MBC: 16 µg/mL
A. baumannii ATCC 19606; 18 h
  MIC: 16 µg/mL
[1]
  MBC: 16 µg/mL
  MIC: 2 µg/mL
[2]
  MBC: 8 µg/mL
  MIC: 4 µg/mL
[3]
  MBC: 2 µg/mL
  MIC: ≤ 1 µg/mL
MRSA-2
  MBC: 8 µg/mL
  MIC: 2 µg/mL
[4]
  MBC: 4 µg/mL
  MIC: ≤ 1 µg/mL
MRSA-1
  MBC: 16 µg/mL
  MIC: 1 µg/mL
[5]; 18 h
  MIC: >32/- µg/mL

## [H]/N=C(\N)NN=C1CCCc2cc(OCc3ccc(F)c(F)c3)ccc21 [Compound 1H, (E)-2-(6-((3,4-difluorobenzyl)oxy)-3,4-dihydronaphthalen-1(2H)-ylidene)hydrazine-1-carboximidamide]
P. aeruginosa ATCC 27853; [6]
  MIC: 32 µg/mL (≈ 92.9 µM)
P. aeruginosa ATCC 27853; [7]
  MBC: 32 µg/mL (≈ 92.9 µM)
E. coli ATCC 25922; [8]
  MIC: 4 µg/mL (≈ 11.6 µM)
E. coli ATCC 25922; [9]
  MBC: 16 µg/mL (≈ 46.5 µM)
E. faecium ATCC 35667; [10]
  MIC: 4 µg/mL (≈ 11.6 µM)
E. faecium ATCC 35667; [11]
  MBC: 16 µg/mL (≈ 46.5 µM)
S. aureus ATCC 29213; [12]
  MIC: 2 µg/mL (≈ 5.81 µM)
S. aureus ATCC 29213; [13]
  MBC: 8 µg/mL (≈ 23.2 µM)
A. baumannii ATCC 19606; [14]
  MIC: 8 µg/mL (≈ 23.2 µM)
A. baumannii ATCC 19606; [15]
  MBC: 8 µg/mL (≈ 23.2 µM)
[1]; [16]
  MIC: 2 µg/mL (≈ 5.81 µM)
[1]; [17]
  MBC: 4 µg/mL (≈ 11.6 µM)
[2]; [16]
  MIC: 2 µg/mL (≈ 5.81 µM)
[2]; [17]
  MBC: > 32 µg/mL
[3]; [16]
  MIC: 2 µg/mL (≈ 5.81 µM)
[3]; [17]
  MBC: 4 µg/mL (≈ 11.6 µM)
MRSA-2; [16]
  MIC: 2 µg/mL (≈ 5.81 µM)
MRSA-2; [17]
  MBC: 8 µg/mL (≈ 23.2 µM)
[4]; [16]
  MIC: 2 µg/mL (≈ 5.81 µM)
[4]; [17]
  MBC: 8 µg/mL (≈ 23.2 µM)
MRSA-1; [16]
  MIC: 2 µg/mL (≈ 5.81 µM)
MRSA-1; [17]
  MBC: 32 µg/mL (≈ 92.9 µM)
[5]; [18]
  MIC: 16 µg/mL (≈ 46.5 µM)
[5]; [19]
  MBC: 32 µg/mL (≈ 92.9 µM)

## [H]/N=C(\N)NN=C1CCCc2cc(OCc3cc(F)cc(F)c3)ccc21 [Compound 1G, (E)-2-(6-((3,5-difluorobenzyl)oxy)-3,4-dihydronaphthalen-1(2H)-ylidene)hydrazine-1-carboximidamide]
P. aeruginosa ATCC 27853; [6]
  MIC: 32 µg/mL (≈ 92.9 µM)
E. coli ATCC 25922; [8]
  MIC: 8 µg/mL (≈ 23.2 µM)
E. coli ATCC 25922; [9]
  MBC: 16 µg/mL (≈ 46.5 µM)
E. faecium ATCC 35667; [10]
  MIC: 4 µg/mL (≈ 11.6 µM)
E. faecium ATCC 35667; [11]
  MBC: 8 µg/mL (≈ 23.2 µM)
S. aureus ATCC 29213; [12]
  MIC: 2 µg/mL (≈ 5.81 µM)
S. aureus ATCC 29213; [13]
  MBC: 8 µg/mL (≈ 23.2 µM)
A. baumannii ATCC 19606; [14]
  MIC: 8 µg/mL (≈ 23.2 µM)
A. baumannii ATCC 19606; [15]
  MBC: 8 µg/mL (≈ 23.2 µM)
[1]; [16]
  MIC: 2 µg/mL (≈ 5.81 µM)
[1]; [17]
  MBC: 4 µg/mL (≈ 11.6 µM)
[2]; [16]
  MIC: 2 µg/mL (≈ 5.81 µM)
[2]; [17]
  MBC: 8 µg/mL (≈ 23.2 µM)
[3]; [16]
  MIC: 2 µg/mL (≈ 5.81 µM)
[3]; [17]
  MBC: 2 µg/mL (≈ 5.81 µM)
MRSA-2; [16]
  MIC: 2 µg/mL (≈ 5.81 µM)
MRSA-2; [17]
  MBC: 16 µg/mL (≈ 46.5 µM)
[4]; [16]
  MIC: 2 µg/mL (≈ 5.81 µM)
[4]; [17]
  MBC: 8 µg/mL (≈ 23.2 µM)
MRSA-1; [16]
  MIC: 2 µg/mL (≈ 5.81 µM)
MRSA-1; [17]
  MBC: 16 µg/mL (≈ 46.5 µM)
[5]; [18]
  MIC: 16 µg/mL (≈ 46.5 µM)
[5]; [19]
  MBC: 16 µg/mL (≈ 46.5 µM)
